From PubChem BioAssay AID2060484 (Molecular Pharmacology Branch, DTP, NCI, 2025)

Tested on: SUM149PT spheroids with HUVEC/MSC, viability
Test: Anticancer human tumor SUM149PT cell line growth inhibition [GQUAD];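 note: spheroids exposed to drugs for seven days before readout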;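 for viability, T/C: percent viability relative to DMSO vehicle control taken as 100%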
Settings: for IC50: curve of first compound; for viability, T/C: stronger effect = lower value
How it was run: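 Tumor cells were grown as complex spheroids with HUVEC endothelial cells and mesenchymal stem cells as stroma. G-quadruplex stabilizers were combined with targeted agents over half-log dilutions from near the clinical Cmax, or from 10 microM.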

[1] = second compound 0.0316 µM, first compound 0.0316 µM
[2] = second compound 0.0316 µM, first compound 0.1 µM
[3] = second compound 0.0316 µM, first compound 0.316 µM
[4] = second compound 0.0316 µM, first compound 1 µM
[5] = second compound 0.0316 µM, first compound 3.16 µM
[6] = second compound 0.0316 µM, first compound 10 µM
[7] = second compound 0.1 µM, first compound 0.0316 µM
[8] = second compound 0.1 µM, first compound 0.1 µM
[9] = second compound 0.1 µM, first compound 0.316 µM
[10] = second compound 0.1 µM, first compound 1 µM
[11] = second compound 0.1 µM, first compound 3.16 µM
[12] = second compound 0.1 µM, first compound 10 µM
[13] = second compound 0.316 µM, first compound 0.0316 µM
[14] = second compound 0.316 µM, first compound 0.1 µM
[15] = second compound 0.316 µM, first compound 0.316 µM
[16] = second compound 0.316 µM, first compound 1 µM
[17] = second compound 0.316 µM, first compound 3.16 µM
[18] = second compound 0.316 µM, first compound 10 µM
[19] = second compound 1 µM, first compound 0.0316 µM
[20] = second compound 1 µM, first compound 0.1 µM
[21] = second compound 1 µM, first compound 0.316 µM
[22] = second compound 1 µM, first compound 1 µM
[23] = second compound 1 µM, first compound 3.16 µM
[24] = second compound 1 µM, first compound 10 µM
[25] = second compound 3.16 µM, first compound 0.0316 µM
[26] = second compound 3.16 µM, first compound 0.1 µM
[27] = second compound 3.16 µM, first compound 0.316 µM
[28] = second compound 3.16 µM, first compound 1 µM
[29] = second compound 3.16 µM, first compound 3.16 µM
[30] = second compound 3.16 µM, first compound 10 µM
[31] = second compound 10 µM, first compound 0.0316 µM
[32] = second compound 10 µM, first compound 0.1 µM
[33] = second compound 10 µM, first compound 0.316 µM
[34] = second compound 10 µM, first compound 1 µM
[35] = second compound 10 µM, first compound 3.16 µM
[36] = second compound 10 µM, first compound 10 µM
[37] = second compound 0.0316 µM, first compound 0.000999 µM
[38] = second compound 0.0316 µM, first compound 0.00316 µM
[39] = second compound 0.0316 µM, first compound 0.00999 µM
[40] = second compound 0.0316 µM, first compound 0.0999 µM
[41] = second compound 0.1 µM, first compound 0.000999 µM
[42] = second compound 0.1 µM, first compound 0.00316 µM
[43] = second compound 0.1 µM, first compound 0.00999 µM
[44] = second compound 0.1 µM, first compound 0.0999 µM
[45] = second compound 0.316 µM, first compound 0.000999 µM
[46] = second compound 0.316 µM, first compound 0.00316 µM
[47] = second compound 0.316 µM, first compound 0.00999 µM
[48] = second compound 0.316 µM, first compound 0.0999 µM
[49] = second compound 1 µM, first compound 0.000999 µM
[50] = second compound 1 µM, first compound 0.00316 µM
[51] = second compound 1 µM, first compound 0.00999 µM
[52] = second compound 1 µM, first compound 0.0999 µM
[53] = second compound 3.16 µM, first compound 0.000999 µM
[54] = second compound 3.16 µM, first compound 0.00316 µM
[55] = second compound 3.16 µM, first compound 0.00999 µM
[56] = second compound 3.16 µM, first compound 0.0999 µM
[57] = second compound 10 µM, first compound 0.000999 µM
[58] = second compound 10 µM, first compound 0.00316 µM
[59] = second compound 10 µM, first compound 0.00999 µM
[60] = second compound 10 µM, first compound 0.0999 µM

C=CC(=O)N1CCN(c2nc(=O)n(-c3c(C)ccnc3C(C)C)c3nc(-c4c(O)cccc4F)c(F)cc23)C(C)C1 (stereo not drawn) + CN(C)c1ccc(Nc2c3ccc(NC(=O)CCN4CCCC4)cc3nc3cc(NC(=O)CCN4CCCC4)ccc23)cc1 was tested, and the IC50 (second compound 0.0316 µM) was > 10000 nM, the IC50 (second compound 0.1 µM) was > 10000 nM and the IC50 (second compound 0.316 µM) was > 10000 nM. The IC50 (second compound 1 µM) was > 10000 nM, the IC50 (second compound 3.16 µM) was > 10000 nM and the IC50 (second compound 10 µM) was > 10000 nM. The viability, T/C [1] was 106%, the viability, T/C [2] was 101% and the viability, T/C [3] was 105%. The viability, T/C [4] was 110%, the viability, T/C [5] was 122% and the viability, T/C [6] was 101%. The viability, T/C [7] was 99.7%, the viability, T/C [8] was 102% and the viability, T/C [9] was 98.2%. For the same molecule, the viability, T/C [10] was 113%, the viability, T/C [11] was 115% and the viability, T/C [12] was 108%. For the same molecule, the viability, T/C [13] was 96.1%, the viability, T/C [14] was 93.9% and the viability, T/C [15] was 110%. The viability, T/C [16] was 114%, the viability, T/C [17] was 111% and the viability, T/C [18] was 101%. It also gave a viability, T/C [19] of 96.5%, a viability, T/C [20] of 86.5% and a viability, T/C [21] of 95.4%. It also gave a viability, T/C [22] of 103%, a viability, T/C [23] of 113% and a viability, T/C [24] of 96.7%. The viability, T/C [25] was 88.3%, the viability, T/C [26] was 89.9% and the viability, T/C [27] was 103%. It also gave a viability, T/C [28] of 104%, a viability, T/C [29] of 106% and a viability, T/C [30] of 85.4%. For the same molecule, the viability, T/C [31] was 86.8%, the viability, T/C [32] was 82.9% and the viability, T/C [33] was 92.6%. For the same molecule, the viability, T/C [34] was 90%, the viability, T/C [35] was 100% and the viability, T/C [36] was 69.2%.
CC[C@@]1(O)C(=O)OCc2c1cc1n(c2=O)Cc2cc3c(CN(C)C)c(O)ccc3nc2-1 + CN(C)c1ccc(Nc2c3ccc(NC(=O)CCN4CCCC4)cc3nc3cc(NC(=O)CCN4CCCC4)ccc23)cc1 was tested, and the IC50 (second compound 0.0316 µM) was > 316 nM, the IC50 (second compound 0.1 µM) was > 316 nM and the IC50 (second compound 0.316 µM) was > 316 nM. It also gave an IC50 (second compound 1 µM) of 206 nM, an IC50 (second compound 3.16 µM) of 84 nM and an IC50 (second compound 10 µM) of 98.1 nM. It also gave a viability, T/C [37] of 110%, a viability, T/C [38] of 87.6% and a viability, T/C [39] of 109%. It also gave a viability, T/C [1] of 82.2%, a viability, T/C [40] of 55.9% and a viability, T/C [3] of 57%. The viability, T/C [41] was 102%, the viability, T/C [42] was 102% and the viability, T/C [43] was 103%. The viability, T/C [7] was 88.4%, the viability, T/C [44] was 56% and the viability, T/C [9] was 57.2%. The viability, T/C [45] was 95.6%, the viability, T/C [46] was 92.1% and the viability, T/C [47] was 90%. The viability, T/C [13] was 83.6%, the viability, T/C [48] was 51.6% and the viability, T/C [15] was 52.9%. For the same molecule, the viability, T/C [49] was 87.8%, the viability, T/C [50] was 88.2% and the viability, T/C [51] was 80.2%. The viability, T/C [19] was 78.3%, the viability, T/C [52] was 54% and the viability, T/C [21] was 47.6%. For the same molecule, the viability, T/C [53] was 94.7%, the viability, T/C [54] was 84.4% and the viability, T/C [55] was 102%. The viability, T/C [25] was 69.7%, the viability, T/C [56] was 47.9% and the viability, T/C [27] was 45.1%. The viability, T/C [57] was 92.5%, the viability, T/C [58] was 90% and the viability, T/C [59] was 86.4%. For the same molecule, the viability, T/C [31] was 74.2%, the viability, T/C [60] was 48.7% and the viability, T/C [33] was 44.9%.
CCc1c2c(nc3ccc(O)cc13)-c1cc3c(c(=O)n1C2)COC(=O)[C@]3(O)CC + CN(C)c1ccc(Nc2c3ccc(NC(=O)CCN4CCCC4)cc3nc3cc(NC(=O)CCN4CCCC4)ccc23)cc1 showed an IC50 (second compound 0.0316 µM) of 11.9 nM, an IC50 (second compound 0.1 µM) of 14.8 nM and an IC50 (second compound 0.316 µM) of 6.28 nM. The IC50 (second compound 1 µM) was 6.73 nM, the IC50 (second compound 3.16 µM) was 5.8 nM and the IC50 (second compound 10 µM) was 6.81 nM. It also gave a viability, T/C [37] of 80%, a viability, T/C [38] of 44% and a viability, T/C [39] of 54.6%. It also gave a viability, T/C [1] of 45.9%, a viability, T/C [40] of 38.9% and a viability, T/C [3] of 20.7%. For the same molecule, the viability, T/C [41] was 70.2%, the viability, T/C [42] was 45.6% and the viability, T/C [43] was 52.8%. The viability, T/C [7] was 48.1%, the viability, T/C [44] was 41.6% and the viability, T/C [9] was 23.5%. The viability, T/C [45] was 64.1%, the viability, T/C [46] was 45.7% and the viability, T/C [47] was 45.3%. It also gave a viability, T/C [13] of 47.5%, a viability, T/C [48] of 37.7% and a viability, T/C [15] of 26%. It also gave a viability, T/C [49] of 63.8%, a viability, T/C [50] of 42.2% and a viability, T/C [51] of 47.2%. The viability, T/C [19] was 48.8%, the viability, T/C [52] was 35.5% and the viability, T/C [21] was 23.5%. The viability, T/C [53] was 64.1%, the viability, T/C [54] was 42.1% and the viability, T/C [55] was 47.2%. For the same molecule, the viability, T/C [25] was 46.1%, the viability, T/C [56] was 35.6% and the viability, T/C [27] was 23.5%. It also gave a viability, T/C [57] of 67.2%, a viability, T/C [58] of 39.2% and a viability, T/C [59] of 49.1%. The viability, T/C [31] was 46.8%, the viability, T/C [60] was 37.2% and the viability, T/C [33] was 22.4%.
COc1cc(C2c3cc4c(cc3C(OC3OC5COC(C)OC5C(O)C3O)C3COC(=O)C23)OCO4)cc(OC)c1O (stereo not drawn) + CN(C)c1ccc(Nc2c3ccc(NC(=O)CCN4CCCC4)cc3nc3cc(NC(=O)CCN4CCCC4)ccc23)cc1 was tested, and the IC50 (second compound 0.0316 µM) was 1270 nM, the IC50 (second compound 0.1 µM) was 1260 nM and the IC50 (second compound 0.316 µM) was 1310 nM. It also gave an IC50 (second compound 1 µM) of 732 nM, an IC50 (second compound 3.16 µM) of 652 nM and an IC50 (second compound 10 µM) of 619 nM. It also gave a viability, T/C [1] of 107%, a viability, T/C [2] of 84.8% and a viability, T/C [3] of 62.9%. The viability, T/C [4] was 55.2%, the viability, T/C [5] was 44.8% and the viability, T/C [6] was 21.6%. It also gave a viability, T/C [7] of 102%, a viability, T/C [8] of 88.8% and a viability, T/C [9] of 59.5%. It also gave a viability, T/C [10] of 55%, a viability, T/C [11] of 44.7% and a viability, T/C [12] of 21.4%. It also gave a viability, T/C [13] of 87.8%, a viability, T/C [14] of 78.1% and a viability, T/C [15] of 59.8%. It also gave a viability, T/C [16] of 59.5%, a viability, T/C [17] of 40.2% and a viability, T/C [18] of 18.1%. The viability, T/C [19] was 87.4%, the viability, T/C [20] was 75.3% and the viability, T/C [21] was 54.4%. The viability, T/C [22] was 48.1%, the viability, T/C [23] was 36.8% and the viability, T/C [24] was 20.5%. It also gave a viability, T/C [25] of 86.6%, a viability, T/C [26] of 74.6% and a viability, T/C [27] of 49.7%. The viability, T/C [28] was 48%, the viability, T/C [29] was 37.4% and the viability, T/C [30] was 17.6%. For the same molecule, the viability, T/C [31] was 85.9%, the viability, T/C [32] was 68.5% and the viability, T/C [33] was 49.1%. The viability, T/C [34] was 48.7%, the viability, T/C [35] was 41% and the viability, T/C [36] was 18.3%.
